Results on 1 compound are retold here after patent publication US20250325610A1, “Compositions Containing Cannabis and Hericium Extracts for the Improvement of Mental Health and Treatment of CNS Disorders” (DrinkBrez, LLC, priority 2024, published 2025).

For the experiment, the system named is theta power. Kind of experiment: EEG study on theta power modulation by THC and Lion's Mane extract (randomized, double-blind, crossover). The experiment is classed as in vivo, human. The following applies: for global theta power change: 16-node EEG, normalized theta power. As to the method:
Participants: 10 healthy adults (18-45 years) in a randomized, double-blind, crossover trial.
Treatments: Baseline (placebo), Lion's Mane (2.2 g), THC (5 mg), THC+Lion's Mane.
Administration: Nanoemulsion beverages for rapid absorption.
EEG recordings: 16-node headset measured theta power at 0 min (baseline), 15 min, and 30 min.
Normalized theta power analyzed via mixed-effects ANOVA.
Topographic mapping for spatial changes.

In the case of `CCCCCc1cc(O)c2c(c1)OC(C)(C)[C@@H]1CCC(C)=C[C@@H]21` [THC, Δ9-tetrahydrocannabinol], the “global theta power change” value is, setting by setting: (15 min after nanoemulsion beverage) −8.9%; (30 min after nanoemulsion beverage) 19.4%. For the same compound, the “theta power change, frontal nodes F3, F7 and FC5” value (15 minutes) is on record as −14.6%. Also, the “theta power change, frontal nodes” value (30 minutes) came to 33.2%. For the same compound, the “theta power change, parietal (P3, P4) and occipital (O1, O2) nodes” value (nodes P3, P4, O1, O2) is recorded as 4-8%.
